We go through 7 molecules from US7015325B2, “Tryptase inhibitors” (ALTANA Pharma AG, priority 1999, dated 2006).

The target in this assay is human tryptase. Description: Inhibition of human tryptase (apparent dissociation constant, chromogenic substrate tos-Gly-Pro-arg-pNA). It is filed as biochemical. As to conditions: apparent dissociation constant in presence of substrate; heparin 0.1–50 μg/ml; equilibrium conditions; read-out: Kiapp. The text has this: The documented pathophysiological effects of mast cell tryptase are caused directly by the enzymatic activity of the protease. Accordingly, they are reduced or blocked by inhibitors which inhibit the enzymatic activity of the tryptase. A suitable measure for the affinity of a reversible inhibitor to the target protease is the equilibrium dissociation constant Ki of the enzyme-inhibitor complex. This Ki value can be determined via the effect of the inhibitor on the tryptase-induced cleavage of a chromogenic peptide-p-nitroanilide substrate or a fluorogenic peptide-aminomethylcoumarin substrate.
The dissociation constants for the tryptase-inhibitor complexes are determined under equilibrium conditions in accordance with the general proposals of Bieth (Bieth J G, Pathophysiological Interpretation of kinetic constants of protease inhibitors, Bull. Europ. Physiopath. Resp. 16:183–195, 1980) and the methods of Sommerhoff et al. (Sommerhoff C P et al., A Kazal-type inhibitor of human mast cell tryptase: Isolation from the medical leech Hirudo medicinalis, characterization, and sequence analysis, Biol. Chem. Hoppe-Seyler 375: 685–694, 1994).
Human tryptase is isolated from lung tissue or prepared recombinantly; the specific activity of the protease, determined by titration, is usually greater than 85% of the theoretical value. In the presence of heparin (0.1–50 μg/ml) for stabilizing the protease, constant amounts of the tryptase are incubated with increasing amounts of the inhibitors. After an equilibrium between the reaction partners has formed, the remaining enzyme activity after addition of the peptide-p-nitroanilide substrate tos-Gly-Pro-arg-pNA is determined and the cleavage of the latter is monitored at 405 nm for 3 min. Alternatively, the remaining enzymatic activity can also be determined using fluorogenic substrates. The apparent dissociation constants Kiapp (i.e. in the presence of substrate) are subsequently determined by adapting the enzyme rates to the general equation for reversible inhibitors (Morrison J F, Kinetics of the reversible inhibition of enzyme-catalyzed reactions by tight-binding inhibitors, Biochim. Biophys. Acta 185, 269–286, 1969) using non-linear regression: VI/V0=1−{Et+It+Kiapp−[(Et+It+Kiapp)^2−4EtIt]^1/2}/2Et VI and V0 are the rates in the presence and absence, respectively, of the inhibitor, and Et and It are the tryptase and inhibitor concentrations, respectively.
The apparent dissociation constants determined for the compounds according to the invention are shown in Table A below, where the numbers of the compounds correspond to the numbers of the compounds in the examples.

Where a name gives a salt, the structure may show the parent alone.

On to `NC[C@H]1CC[C@H](C(=O)N2CCN(C(=O)OCCOCC#CCOCCOC(=O)N3CCN(C(=O)[C@H]4CC[C@H](CN)CC4)CC3)CC2)CC1` [Compound 1, 1,4-Bis-[4-(trans-4-aminomethylcyclohexylcarbonyl)-1-piperazinylcarbonyl-1-oxyethyl-2-oxy]-2-butyne dihydrochloride], for which the Ki is 86 nM.

With `NCc1ccc(CNC(=O)N2CCN(C(=O)OCCOCC#CCOCCOC(=O)N3CCN(C(=O)NCc4ccc(CN)cc4)CC3)CC2)cc1` [Compound 2, 1,4-Bis-[4-(4-aminomethylbenzylaminocarbonyl)-1-piperazinylcarbonyl-1-oxyethyl-2-oxy]-2-butyne dihydrochloride], the Ki is 0.35 nM.

For `NCc1cccc(CNC(=O)N2CCN(C(=O)OCCOCC#CCOCCOC(=O)N3CCN(C(=O)NCc4cccc(CN)c4)CC3)CC2)c1` [Compound 3, 1,4-Bis-[4-(3-aminomethylbenzylaminocarbonyl)-1-piperazinylcarbonyl-1-oxyethyl-2-oxy]-2-butyne dihydrochloride], the Ki amounted to 8 nM.

As for `NCc1ccc(CNC(=O)N2CCN(C(=O)OCC#CC#CCOC(=O)N3CCN(C(=O)NCc4ccc(CN)cc4)CC3)CC2)cc1` [Compound 4, 1,6-Bis-[4-(4-aminomethylbenzylaminocarbonyl)-1-piperazinylcarbonyl-1-oxy]-2,4-hexadiyne dihydrochloride], the Ki was found to be 0.25 nM.

On to `NCc1ccc(CNC(=O)N2CCN(C(=O)OCCCCC#CC#CCCCCOC(=O)N3CCN(C(=O)NCc4ccc(CN)cc4)CC3)CC2)cc1` [Compound 5, 1,12-Bis-[4-(4-aminomethylbenzylaminocarbonyl)-1-piperazinylcarbonyl-1-oxy]-5,7-dodecadiyne dihydrochloride], for which the Ki was found to be 12 nM.

`NCc1cccc(CNC(=O)N2CCN(C(=O)OCCCCC#CC#CCCCCOC(=O)N3CCN(C(=O)NCc4cccc(CN)c4)CC3)CC2)c1` [Compound 6, 1,12-Bis-[4-(3-aminomethylbenzylaminocarbonyl)-1-piperazinylcarbonyl-1-oxy]-5,7-dodecadiyne dihydrochloride]: the Ki came out at 1.4 nM.

As for `NCc1cccc(CNC(=O)N2CCN(C(=O)OCC#CC#CCOC(=O)N3CCN(C(=O)NCc4cccc(CN)c4)CC3)CC2)c1` [Compound 7, 1,6-Bis-[4-(3-aminomethylbenzylaminocarbonyl)-1-piperazinylcarbonyl-1-oxy]-2,4-hexadiyne dihydrochloride], the Ki turned out to be 8 nM.
